Measurements from patent publication US20210353579A1, “HIGH PENETRATION COMPOSITIONS AND USES THEREOF” (Techfields Pharma Co., Ltd., priority 2006, published 2021).

Key:
[1] = tested on: Human colon cancer cells (LS174J); test: Human colon cancer xenograft in nude mice, topical; settings: day 30, about 30 μl of 5% solution (1.5 mg) topically applied
From the text: Human colon cancer cells (LS174J, 2-3 mm^3 of tumor tissue was used in each mouse) are subcutaneously xenografted into the front leg of nude mice (BALB).

[2] = tested on: rats (SLAC/GK, type 2 diabetes); test: Blood lipid in type 2 diabetes rats, transdermal; format: in vivo, rat
Outline: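 GK type 2 diabetic rats (n=7) received the HPPs transdermally on a shaved ~1.5 cm^2 area of the back, at a dose equal to 20 mg/kg of NSAIAs, once daily for 5 weeks. Non-fasting blood glucose was measured every 3 days at 3 pm from week 2 to week 5, and blood lipids at the end of week 5.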

[3] = tested on: rats (SLAC/GK, type 2 diabetes); test: Blood lipid in type 2 diabetes rats, oral with food; format: in vivo, rat
Outline: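 Compounds (dosed equivalent to 20 mg/kg of NSAIAs) mixed in food and given orally daily for 5 weeks to rats (n=7). Non-fasting blood glucose measured every 3 days at 3 pm from week 2 to week 5; blood lipids measured at end of week 5.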

[4] = tested on: Chinese white rabbits; test: Autologous blood clot pulmonary embolization, thrombus propagation; format: in vivo, rabbit; settings: 20 mg/kg topically, after 2 days
Procedure: Eighteen Chinese White rabbits weighing between 3.0 and 3.5 kg (aged 6-7 months) were selected and divided into three groups (control, P-1 and […] groups, n=6). One hour before the experiment, thrombi were made by aspirating venous blood (1 ml) into a sterilized bottle to clot. To avoid fragmentation and slow lysis, the autologous blood clots were stabilized in temperature-controlled (70° C.) distilled water for 10 min. After anesthesia, the femoral veins were exposed and distally isolated, and autologous blood clots (0.05 g/kg) were injected through an indwelling catheter (20 GA), which had been placed in the femoral vein isolated earlier. 50% acetone solution of diethylaminoethyl acetylsalicylate.acetylsalicylic acid salt (P-1, in acetone, 20 mg/kg) and diethylaminoethyl acetylsalicylsalicylate. acetylsalicylsalicylic acid salt (P-59, 20 mg/kg) were topically applied to the back of the rabbits. After 2 days, rabbits were euthanized with an excessive intravenous injection of sodium amobarbital (60 mg/kg). The lungs and hearts were isolated to observe whether thrombi were present in the pulmonary arteries. The lungs were immersed in 10% formalin for 24 h. Consecutive transverse sections along the obstructed pulmonary arteries were paraffin-embedded and stained with hematoxylin-eosine. […]

[5] = baseline, equal to 20 mg/kg of NSAIAs
[6] = end of the fifth week, equal to 20 mg/kg of NSAIAs once per day
[7] = end of the fifth week, equal to 20 mg/kg of NSAIAs every day

SMILES: CC(=O)Oc1ccccc1C(=O)O.CCN(CC)CCOC(=O)c1ccccc1OC(C)=O [P-1, diethylaminoethyl acetylsalicylate.acetylsalicylic acid salt]
- Tumor size [1]: 420 ± 100 mm^3
- Cholesterol (HDL), Baseline [2, 5]: 1.4 ± 0.2 mmol/L
- Cholesterol (total), Baseline [2, 5]: 7.7 ± 0.4 mmol/L
- Triglycerides, Baseline [2, 5]: 5.4 ± 0.5 mmol/L
- Cholesterol (HDL), Average [2, 6]: 1.5 ± 0.2 mmol/L
- Cholesterol (total), Average [2, 6]: 4.0 ± 0.3 mmol/L
- Triglycerides, Average [2, 6]: 1.5 ± 0.2 mmol/L
- Cholesterol (HDL), Baseline [3, 5]: 1.5 ± 0.2 mmol/L
- Cholesterol (total), Baseline [3, 5]: 7.6 ± 0.4 mmol/L
- Triglycerides, Baseline [3, 5]: 5.7 ± 0.5 mmol/L
- Cholesterol (HDL), Average [3, 7]: 1.6 ± 0.2 mmol/L
- Cholesterol (total), Average [3, 7]: 4.1 ± 0.3 mmol/L
- Triglycerides, Average [3, 7]: 1.4 ± 0.2 mmol/L
- lung tissue and vascular walls (thrombus propagation) [4]: both lung tissue and vascular walls were normal
